From publication PMC3724850, “A Scallop Nitric Oxide Synthase (NOS) with Structure Similar to Neuronal NOS and Its Involvement in the Immune Defense” (PLoS ONE, 2013)

Target: T1, CfNOS (native) (Azumapecten farreri, UniProt S4UD24)
T1 construct: gene NOS; immunoprecipitated from scallop haemocyte lysate with rat polyclonal antibody to rCfNOS, Protein G column
T1 sequence (S4UD24 1-1486): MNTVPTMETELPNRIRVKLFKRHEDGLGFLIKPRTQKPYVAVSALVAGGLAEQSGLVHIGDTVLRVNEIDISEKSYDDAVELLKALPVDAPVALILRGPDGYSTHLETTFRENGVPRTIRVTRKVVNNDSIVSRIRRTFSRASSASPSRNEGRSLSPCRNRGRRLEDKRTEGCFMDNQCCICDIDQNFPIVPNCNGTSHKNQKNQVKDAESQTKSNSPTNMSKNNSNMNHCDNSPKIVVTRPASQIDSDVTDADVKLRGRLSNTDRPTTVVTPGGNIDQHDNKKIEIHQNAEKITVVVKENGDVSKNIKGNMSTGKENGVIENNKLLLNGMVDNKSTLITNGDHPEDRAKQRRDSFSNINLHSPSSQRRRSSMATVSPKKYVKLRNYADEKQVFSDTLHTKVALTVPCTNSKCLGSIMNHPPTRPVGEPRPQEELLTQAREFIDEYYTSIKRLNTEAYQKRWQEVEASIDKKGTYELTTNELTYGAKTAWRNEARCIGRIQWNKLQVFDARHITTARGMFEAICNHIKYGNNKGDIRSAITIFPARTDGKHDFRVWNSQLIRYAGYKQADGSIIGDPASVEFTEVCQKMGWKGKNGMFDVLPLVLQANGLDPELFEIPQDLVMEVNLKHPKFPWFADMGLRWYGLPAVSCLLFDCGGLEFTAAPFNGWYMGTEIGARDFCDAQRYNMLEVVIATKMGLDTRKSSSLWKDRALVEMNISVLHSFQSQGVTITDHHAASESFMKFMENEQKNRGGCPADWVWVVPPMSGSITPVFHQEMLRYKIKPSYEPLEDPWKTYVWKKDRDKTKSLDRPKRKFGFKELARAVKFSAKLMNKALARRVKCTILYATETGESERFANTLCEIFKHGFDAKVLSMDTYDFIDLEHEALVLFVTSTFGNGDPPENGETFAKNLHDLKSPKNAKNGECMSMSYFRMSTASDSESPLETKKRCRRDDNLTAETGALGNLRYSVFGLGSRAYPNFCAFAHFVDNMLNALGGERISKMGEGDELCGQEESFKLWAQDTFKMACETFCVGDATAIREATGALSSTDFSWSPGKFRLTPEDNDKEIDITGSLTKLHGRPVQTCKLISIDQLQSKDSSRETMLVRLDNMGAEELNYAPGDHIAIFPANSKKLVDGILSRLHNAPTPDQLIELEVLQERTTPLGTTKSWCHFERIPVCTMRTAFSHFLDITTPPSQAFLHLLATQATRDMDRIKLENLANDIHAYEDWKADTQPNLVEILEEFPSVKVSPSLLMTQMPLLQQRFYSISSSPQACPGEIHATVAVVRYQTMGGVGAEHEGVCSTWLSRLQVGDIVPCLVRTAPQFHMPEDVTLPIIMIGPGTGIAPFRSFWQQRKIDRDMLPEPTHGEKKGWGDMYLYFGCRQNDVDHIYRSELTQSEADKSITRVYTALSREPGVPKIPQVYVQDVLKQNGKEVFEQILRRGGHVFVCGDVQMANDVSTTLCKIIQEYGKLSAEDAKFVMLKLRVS
Experiment: NOS activity by total NOS detection kit (absorbance […] nm)
Assay type: biochemical
Conditions: no inhibitor; immunoprecipitated native enzyme

For N=C(N)NCCC[C@H](N)C(=O)O [L-Arginine], the “NOS activity by total NOS detection kit (absorbance 530 nm)” value was “measuring the NO production using L-Arginine as the substrate”.
